Results on 25 compounds are retold here after US4605654A, “2-(arylalkyloxymethyl)morpholines and the central nervous system compositions” (P. F. Medicament, priority 1984, dated 1986).

Series [1] relates to 5-HTP (5-hydroxytryptophan). Kind of series: 5-HTP (5-hydroxytryptophan) potentiation test (Christensen et al.): head movements and tremors. Format: in vivo, mice. The following applies: for activity in the 5-HTP potentiation test: in words; for ED50: Mus musculus, 0.25 h. As for the experimental part: The mice receive an intravenous injection of 5-HTP (100 mg/10 ml/kg) after oral administration of the compounds to be studied (25 ml/kg). Fifteen minutes after the injection of 5-HTP, the presence and intensity of head movements and tremors are noted.

Another series concerns nociceptive reactions. In words: Heating-plate test, analgesic activity (WOOLFE and MacDONALD). The following applies: mouse, oral, 100 mg/kg; 30 min; plate 65° C. Format: in vivo. How it is done: The products to be tested are administered to the mouse orally. 30 minutes later, the mice are placed on a plate brought to 65° C. The nociceptive reactions are assessed objectively in terms of the licking of the forepaws. The time for this response to appear is noted.
The method of calculation used is that described by HARRIS L. S. and PIERSON A. K. (1964, J. Pharmacol. Exp. Ther., 143, 141-148).

The next series is described as follows: physchem. As to conditions: water.
[2] abbreviates: mice, oral, 5-HTP i.v. 100 mg/10 ml/kg, observed 15 min after 5-HTP, read-out: ED50.

Structures can show the parent of a compound that is named as a salt. Where two headings read alike, the source gives them in different places.

In the case of “2-[(3-Phenylpropyloxy)methyl]morpholine hydrogen oxalate [Example 16]”, the “activity in the 5-HTP potentiation test” value in series [1] (mice, oral) is listed as “activity”.
Turning to `CCC(=O)O[C@](Cc1ccccc1)(c1ccccc1)[C@H](C)CN(C)C` [Dextropropoxyphene, reference compound], the “PERCENTAGE ANALGESIA” value with nociceptive reactions is listed as 15%.
As to `c1ccc(COCC2CNCCO2)cc1` (stereo not drawn) [Example 1, 2-(benzyloxymethyl)morpholine hydrogen maleate], in “Solubility in water”, the solubility amounted to 100 mg/mL.
Same read-out and setting: under `COc1ccccc1COCC1CNCCO1` (stereo not drawn) [Example 2, 2-[(2-Methoxybenzyloxy)methyl]morpholine hydrogen fumarate] stands 50 mg/mL.
In “Solubility in water”, `COc1cccc(COCC2CNCCO2)c1` (stereo not drawn) [Example 3, 2-[(3-Methoxybenzyloxy)methyl]morpholine hydrogen maleate] yielded a solubility of 10 mg/mL. Besides, the ED50 in series [1] (setting [2]) worked out at 10 mg/kg. Further, the “activity in the 5-HTP potentiation test” value in series [1] (mice, oral) is recorded as “activity”.
In turn, `COc1ccc(COCC2CNCCO2)cc1` (stereo not drawn) [Example 4, 2-[(4-methoxybenzyloxy)methyl]morpholine hydrogen oxalate] displayed a solubility in the series “Solubility in water” of 40 mg/mL.
Take `Cc1ccccc1COCC1CNCCO1` (stereo not drawn) [Example 5, 2-[(2-Methylbenzyloxy)methyl]morpholine hydrogen maleate]: the “PERCENTAGE ANALGESIA” value in the series with nociceptive reactions amounted to 20%. The ED50 in series [1] (setting [2]) was 16 mg/kg. In addition, in series [1] (mice, oral), the “activity in the 5-HTP potentiation test” value is recorded as “activity”.
`Cc1cccc(COCC2CNCCO2)c1` (stereo not drawn) [Example 6, 2-[(3-Methylbenzyloxy)methyl]morpholine hydrogen maleate] returned a solubility in “Solubility in water” of 30 mg/mL.
Still for that read-out and setting: with `Cc1ccc(COCC2CNCCO2)cc1` (stereo not drawn) [Example 7, 2-[(4-Methylbenzyloxy)methyl]morpholine hydrogen oxalate] the figure was 20 mg/mL.
Compound `Clc1ccccc1COCC1CNCCO1` (stereo not drawn) [Example 8, 2-[(2-Chlorobenzyloxy)methyl]morpholine hydrogen maleate] returned a solubility in “Solubility in water” of 20 mg/mL. In addition, in series [1] (setting [2]), the ED50 came out at 15 mg/kg. Moreover, in series [1] (mice, oral), the “activity in the 5-HTP potentiation test” value is “activity”.
In the series “Solubility in water”, `Clc1cccc(COCC2CNCCO2)c1` (stereo not drawn) [Example 9, 2-[(3-Chlorobenzyloxy)methyl]morpholine hydrogen maleate] displayed a solubility of 20 mg/mL. For the same compound, the “PERCENTAGE ANALGESIA” value in the series on nociceptive reactions is 16%. Also, the ED50 in series [1] (setting [2]) worked out at 15 mg/kg. The “activity in the 5-HTP potentiation test” value in series [1] (mice, oral) is reported as “activity”.
The compound `Clc1ccc(COCC2CNCCO2)cc1` (stereo not drawn) [Example 10, 2-[(4-Chlorobenzyloxy)methyl]morpholine hydrogen maleate] returned a solubility in the series “Solubility in water” of 60 mg/mL.
Regarding `CCOc1ccccc1COCC1CNCCO1` (stereo not drawn) [Example 11, 2-[(2-Ethoxybenzyloxy)methyl]morpholine hydrogen maleate], the solubility in “Solubility in water” amounted to 30 mg/mL. Further, in the series on nociceptive reactions, the “PERCENTAGE ANALGESIA” value is given as 16%. In addition, in series [1] (setting [2]), the ED50 came to 15 mg/kg. For the same compound, the “activity in the 5-HTP potentiation test” value in series [1] (mice, oral) is recorded as “activity”.
As to `Clc1ccc(COCC2CNCCO2)c(Cl)c1` (stereo not drawn) [Example 12, 2-[(2,4-Dichlorobenzyloxy)methyl]morpholine hydrogen maleate], in “Solubility in water”, the solubility was 40 mg/mL.
In “Solubility in water”, `Clc1ccc(COCC2CNCCO2)cc1Cl` (stereo not drawn) [Example 13, 2-[(3,4-Dichlorobenzyloxy)methyl]morpholine hydrogen maleate] came in with a solubility of 10 mg/mL.
The compound `Clc1cccc(Cl)c1COCC1CNCCO1` (stereo not drawn) [Example 14, 2-[(2,6-Dichlorobenzyloxy)methyl]morpholine hydrogen maleate] registered a solubility in “Solubility in water” of 50 mg/mL. Besides, the “PERCENTAGE ANALGESIA” value with nociceptive reactions is listed as 23%. Besides, the 50% effective dose (ED50) in series [1] (setting [2]) is 18 mg/kg.
In “Solubility in water”, `Fc1cccc(Cl)c1COCC1CNCCO1` (stereo not drawn) [Example 15, 2-[(2-Fluoro-6-chlorobenzyloxy)methyl]morpholine hydrogen maleate] came in with a solubility of 30 mg/mL.
In the case of `c1ccc2c(c1)OCC(COCC1CNCCO1)O2` (stereo not drawn) [Example 17, 2-{[(1,4-Benzodioxan-2-yl)methoxy]methyl}morpholine hydrogen maleate], in the series “Solubility in water”, the solubility was 100 mg/mL.
The same measure, in the same setting: with `CC(OCC1CNCCO1)c1ccccc1` (stereo not drawn) [Example 37, 2-[(1-Phenylethyloxy)methylmorpholine hydrogen oxalate] the figure was 50 mg/mL.
In the series “physchem”, `O=C(O)C(=O)O.Oc1ccc(COCC2CNCCO2)cc1` (stereo not drawn) [Example 42, 2-[(4-Hydroxybenzyloxy)methyl]morpholine hydrogen oxalate] gave a solubility of 200 mg/mL.
`c1ccc(COc2ccc(COCC3CNCCO3)cc2)cc1` (stereo not drawn) [Example 42b, 2-[4-Benzyloxybenzyloxy)methyl]morpholine hydrogen oxalate] yielded a solubility in “Solubility in water” of 10 mg/mL.
On the same count and under the same terms, under `Oc1cccc(COCC2CNCCO2)c1` (stereo not drawn) [Example 43, 2-[(3-Hydroxybenzyloxy)methyl]morpholine hydrogen oxalate] stands 100 mg/mL.
The same measure, in the same setting: with `Nc1ccc(COCC2CNCCO2)cc1` (stereo not drawn) [Example 44, 2-[(4-Aminobenzyloxy)methyl]morpholine dihydrogen succinate] the figure was 60 mg/mL.
For `Nc1cccc(COCC2CNCCO2)c1.O=C(O)CCC(=O)O` (stereo not drawn) [Example 45, 2-[(3-Aminobenzyloxy)methyl]morpholine dihydrogen succinate], the solubility in “physchem” came out at 120 mg/mL.
For the compound `c1ccc2nc(N3CCNCC3)ccc2c1` [Quipazine, reference compound], the ED50 in series [1] (po) came to 15 mg/kg.

In general, solubility refers to the concentration that dissolves in the medium under given conditions. High values mean much dissolved substance, low ones little dissolved substance. A word on the ED50: it is the midpoint of the dose-response relation.
